Test results: patent US10941157B2, “Pesticidal compositions and uses thereof” (Gilead Apollo, LLC, priority 2015, dated 2021)
In brackets after ≈: the same amount, converted by molar mass.

Tests used:
Type in all cases: cell-based
[1] = test system: Phytophthora capsici (Pc); assay: In vitro pathogen growth inhibition assay, Pc; details: 48 h, ≥90% inhibition, 48 hours vs 2% DMSO control, read-out: Compound Concentration (ppm) sufficient for ≥90% inhibition of growth, Pc
Procedure, shortened: (§1)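 Spores in 17% V8 liquid medium, or 1.5 mm Rs mycelial plugs in ¼ PDB, incubated with compound; final concentration checked by OD600 for precipitation. OD readings at 24 and 48 h, blank-subtracted, plus visual ratings; value is concentration giving ≥90% growth inhibition.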

[2] = test system: Fusarium moniliforme (Fm); assay: In vitro pathogen growth inhibition assay, Fm; details: Fusarium verticillioides; ≥90% inhibition; 48 hours vs 2% DMSO control; read-out: Compound Concentration (ppm) sufficient for ≥90% inhibition of growth, Fm
Procedure, shortened: (§2)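 Value reported is the compound concentration reaching ≥90% growth inhibition, from OD readings at 24 and 48 h after blank subtraction, confirmed visually. Inoculum was spores diluted in 17% V8 medium, except Rs, using 1.5 mm mycelial plugs in ¼ PDB; actual compound concentration corrected via OD600.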

Septoria tritici (St) = assay: In vitro pathogen growth inhibition assay, St; details: Zymoseptoria tritici, 48 h, ≥90% inhibition; 48 hours vs 2% DMSO control; read-out: Compound Concentration (ppm) sufficient for ≥90% inhibition of growth, St
Procedure, shortened: as §2

Rhizoctonia solani (Rs) = assay: In vitro pathogen growth inhibition assay, Rs (mycelial plugs); details: Rhizoctonia solani, 48 h, ≥90% inhibition; mycelial plugs; 48 hours vs 2% DMSO control; read-out: Compound Concentration (ppm) sufficient for ≥90% inhibition of growth, Rs
Procedure, shortened: as §1

Botrtyis cinerea (Bc) = assay: In vitro pathogen growth inhibition assay, Bc; details: 48 h, ≥90% inhibition; 48 hours vs 2% DMSO control; read-out: Compound Concentration (ppm) sufficient for ≥90% inhibition of growth, Bc
Procedure, shortened: as §2

[3] = test system: Fusarium virguliforme (Fv); assay: In vitro pathogen growth inhibition assay, Fv; details: ≥90% inhibition, 48 hours vs 2% DMSO control, read-out: Compound Concentration (ppm) sufficient for ≥90% inhibition of growth, Fv
Procedure, shortened: as §1

Diplodia maydis (Dm) = assay: In vitro pathogen growth inhibition assay, Dm; details: Stenocarpella maydis, 48 h, ≥90% inhibition; 48 hours vs 2% DMSO control; read-out: Compound Concentration (ppm) sufficient for ≥90% inhibition of growth, Dm
Procedure, shortened: as §1

[4] = test system: Collectotrichum graminicola (Cg); assay: In vitro pathogen growth inhibition assay, Cg; details: 48 h, ≥90% inhibition; 48 hours vs 2% DMSO control; read-out: Compound Concentration (ppm) sufficient for ≥90% inhibition of growth, Cg
Procedure, shortened: as §2

Row | Compound | IC90 [1] [µg/mL] | IC90 [2] [µg/mL] | IC90 (Septoria tritici (St)) [µg/mL] | IC90 (Rhizoctonia solani (Rs)) [µg/mL] | IC90 (Botrtyis cinerea (Bc)) [µg/mL] | IC90 [3] [µg/mL] | IC90 (Diplodia maydis (Dm)) [µg/mL] | IC90 [4] [µg/mL]
1 | CCOC(=O)C(C)(C)n1c(=O)c2c(C)c(-n3nccn3)sc2n(C[C@H](OCCO)c2cc(F)ccc2OC)c1=O [Compound I-085] | > 50 | 0.08 (≈ 0.139 µM) | ≥ 10 | 0.08 (≈ 0.139 µM) | > 0.08 | 0.4 (≈ 0.695 µM) | 0.4 (≈ 0.695 µM) | 0.4 (≈ 0.695 µM)
2 | COCCO[C@@H](Cn1c(=O)n(CC(=O)NC(C)C)c(=O)c2c(C)c(-n3nccn3)sc21)c1cc(F)ccc1OC [Compound I-086] | > 50 | 0.08 (≈ 0.139 µM) | > 50 | 10 (≈ 17.4 µM) | > 50 | ≥ 2 | > 50 | > 50
3 | COc1ccc(F)cc1[C@H](Cn1c(=O)n(CC(=O)NC(C)C)c(=O)c2c(C)c(-n3nccn3)sc21)OCCO [Compound I-087] | > 50 | 0.08 (≈ 0.143 µM) | > 50 | 2 (≈ 3.57 µM) | 2 (≈ 3.57 µM) | 2 (≈ 3.57 µM) | > 50 | 2 (≈ 3.57 µM)
4 | COc1ccc(F)cc1[C@H](Cn1c(=O)n(CC(=O)N2CCCC2)c(=O)c2c(C)c(-n3nccn3)sc21)OCCO [Compound I-088] | > 50 | 0.08 (≈ 0.14 µM) | > 50 | 0.08 (≈ 0.14 µM) | 0.08 (≈ 0.14 µM) | 0.4 (≈ 0.699 µM) | 2 (≈ 3.49 µM) | 2 (≈ 3.49 µM)
5 | COc1ccc(F)cc1[C@H](Cn1c(=O)n([C@@H](C)C(=O)NC2CCC2)c(=O)c2c(C)c(-n3nccn3)sc21)OCCO [Compound I-091] | > 50 | 0.08 (≈ 0.136 µM) | > 50 | 2 (≈ 3.41 µM) | 0.4 (≈ 0.682 µM) | 0.4 (≈ 0.682 µM) | 2 (≈ 3.41 µM) | ≥ 2
6 | COc1ccc(F)cc1[C@H](Cn1c(=O)n(C(C)(C)C(N)=O)c(=O)c2c(C)c(-n3nccn3)sc21)OC(C)C [Compound I-113] | > 50 | 0.4 (≈ 0.734 µM) | 50 (≈ 91.8 µM) | 0.08 (≈ 0.147 µM) | 2 (≈ 3.67 µM) | 0.4 (≈ 0.734 µM) | 2 (≈ 3.67 µM) | 2 (≈ 3.67 µM)
7 | COc1ccc(F)cc1[C@H](Cn1c(=O)n(C(C)(C)C(=O)N2CC(O)C2)c(=O)c2c(C)c(-n3nccn3)sc21)OC1CCOCC1 [Compound I-114] | > 50 | 0.4 (≈ 0.622 µM) | > 50 | 10 (≈ 15.6 µM) | 2 (≈ 3.11 µM) | 2 (≈ 3.11 µM) | 10 (≈ 15.6 µM) | 10 (≈ 15.6 µM)
8 | COc1ccccc1[C@H](Cn1c(=O)n(C(C)(C)C(=O)N2CCCC2)c(=O)c2c(C)c(-n3cccn3)sc21)OC1CCOCC1 [Compound I-116] | > 50 | 0.4 (≈ 0.643 µM) | ≥ 50 | 2 (≈ 3.22 µM) | 10 (≈ 16.1 µM) | 10 (≈ 16.1 µM) | 10 (≈ 16.1 µM) | ≥ 2
9 | COc1ccccc1[C@H](Cn1c(=O)n(C(C)(C)C(=O)N2CCCCC2)c(=O)c2c(C)c(-n3cccn3)sc21)OC1CCOCC1 [Compound I-117] | > 50 | 0.4 (≈ 0.629 µM) | > 50 | 10 (≈ 15.7 µM) | 2 (≈ 3.15 µM) | 10 (≈ 15.7 µM) | 10 (≈ 15.7 µM) | 10 (≈ 15.7 µM)
10 | COc1ccccc1[C@H](Cn1c(=O)n(C(C)(C)C(=O)NC(C)C)c(=O)c2c(C)c(-n3cccn3)sc21)OCC(C)C [Compound I-119] | > 50 | 0.4 (≈ 0.688 µM) | > 50 | 2 (≈ 3.44 µM) | 2 (≈ 3.44 µM) | 10 (≈ 17.2 µM) | ≥ 2 | 10 (≈ 17.2 µM)
11 | COc1ccccc1[C@H](Cn1c(=O)n(C(C)(C)C(=O)N2CCCC2)c(=O)c2c(C)c(-n3cccn3)sc21)OCC(C)C [Compound I-120] | > 50 | 0.4 (≈ 0.674 µM) | > 50 | 2 (≈ 3.37 µM) | 2 (≈ 3.37 µM) | 10 (≈ 16.8 µM) | 2 (≈ 3.37 µM) | 2 (≈ 3.37 µM)
12 | COc1ccccc1[C@H](Cn1c(=O)n(C(C)(C)C(=O)N2CCCCC2)c(=O)c2c(C)c(-n3cccn3)sc21)OCC(C)C [Compound I-121] | > 50 | 0.4 (≈ 0.658 µM) | > 50 | 50 (≈ 82.3 µM) | 2 (≈ 3.29 µM) | > 50 | ≥ 2 | 10 (≈ 16.5 µM)
13 | COc1ccc(F)cc1[C@H](Cn1c(=O)n(C(C)(C)C(=O)N2CCCC2)c(=O)c2c(C)c(-n3cccn3)sc21)OC1CCC(=O)CC1 [Compound I-122] | > 50 | 0.4 (≈ 0.614 µM) | > 50 | 2 (≈ 3.07 µM) | 2 (≈ 3.07 µM) | ≥ 2 | 10 (≈ 15.3 µM) | ≥ 2
14 | COc1ccc(F)cc1[C@H](Cn1c(=O)n(C(C)(C)C(=O)N2CCCC2)c(=O)c2c(C)c(-n3cccn3)sc21)O[C@H]1CC[C@@H](O)CC1 [Compound I-123] | > 50 | 0.4 (≈ 0.612 µM) | > 50 | 10 (≈ 15.3 µM) | 2 (≈ 3.06 µM) | 2 (≈ 3.06 µM) | 10 (≈ 15.3 µM) | ≥ 10
15 | COc1ccc(F)cc1[C@H](Cn1c(=O)n(C(C)(C)C(N)=O)c(=O)c2c(C)c(-n3nccn3)sc21)OC1CCC(=O)CC1 [Compound I-124] | 50 (≈ 83.5 µM) | 0.4 (≈ 0.668 µM) | > 50 | 2 (≈ 3.34 µM) | ≥ 0.4 | 10 (≈ 16.7 µM) | ≥ 2 | 10 (≈ 16.7 µM)
16 | COc1ccc(F)cc1[C@H](Cn1c(=O)n(C(C)(C)C(=O)N2CCCC2)c(=O)c2c(C)c(-n3nccn3)sc21)OCCO [Compound I-130] | 50 (≈ 83.2 µM) | 0.4 (≈ 0.666 µM) | ≥ 50 | ≥ 2 | 2 (≈ 3.33 µM) | ≥ 0.4 | ≥ 2 | 2 (≈ 3.33 µM)

More lines, now with the values ahead:

Row | IC90 [1] [µg/mL] | IC90 [2] [µg/mL] | IC90 (Septoria tritici (St)) [µg/mL] | IC90 (Rhizoctonia solani (Rs)) [µg/mL] | IC90 (Botrtyis cinerea (Bc)) [µg/mL] | IC90 [3] [µg/mL] | IC90 (Diplodia maydis (Dm)) [µg/mL] | IC90 [4] [µg/mL] | Compound
17 | > 50 | 0.08 (≈ 0.133 µM) | > 50 | 2 (≈ 3.32 µM) | 0.4 (≈ 0.664 µM) | 10 (≈ 16.6 µM) | 2 (≈ 3.32 µM) | 10 (≈ 16.6 µM) | COCCCO[C@@H](Cn1c(=O)n([C@@H](C)C(=O)NC(C)C)c(=O)c2c(C)c(-n3nccn3)sc21)c1cc(F)ccc1OC [Compound I-093]
18 | > 50 | 0.08 (≈ 0.139 µM) | > 50 | 2 (≈ 3.48 µM) | 0.4 (≈ 0.696 µM) | 2 (≈ 3.48 µM) | ≥ 2 | 50 (≈ 87 µM) | COc1ccc(F)cc1[C@H](Cn1c(=O)n([C@H](C)C(=O)NC(C)C)c(=O)c2c(C)c(-n3nccn3)sc21)OCCO [Compound I-097]
19 | > 50 | 0.4 (≈ 0.637 µM) | ≥ 50 | 10 (≈ 15.9 µM) | 2 (≈ 3.19 µM) | 2 (≈ 3.19 µM) | ≥ 2 | ≥ 2 | COc1ccc(F)cc1[C@H](Cn1c(=O)n(C(C)(C)C(=O)NC(C)C)c(=O)c2c(C)c(-n3cccn3)sc21)OC1CCOCC1 [Compound I-115]
20 | > 50 | 0.4 (≈ 0.705 µM) | ≥ 50 | 50 (≈ 88.1 µM) | 2 (≈ 3.52 µM) | 0.4 (≈ 0.705 µM) | 2 (≈ 3.52 µM) | 10 (≈ 17.6 µM) | COc1ccccc1[C@H](Cn1c(=O)n(C(C)(C)C(=O)NC(C)C)c(=O)c2c(C)c(-n3cccn3)sc21)OC(C)C [Compound I-118]
21 | > 50 | 0.4 (≈ 0.7 µM) | > 50 | ≥ 2 | 2 (≈ 3.5 µM) | 0.4 (≈ 0.7 µM) | > 50 | ≥ 2 | CCO[C@@H](Cn1c(=O)n(C(C)(C)C(=O)NC(C)C)c(=O)c2c(C)c(-n3cccn3)sc21)c1cc(F)ccc1OC [Compound I-125]
22 | 50 (≈ 87.5 µM) | 0.4 (≈ 0.7 µM) | 50 (≈ 87.5 µM) | 2 (≈ 3.5 µM) | 2 (≈ 3.5 µM) | 1.2 (≈ 2.1 µM) | 2 (≈ 3.5 µM) | 2 (≈ 3.5 µM) | COc1ccc(F)cc1[C@H](Cn1c(=O)n(C(C)C(=O)NC(C)C)c(=O)c2c(C)c(-n3cccn3)sc21)OC(C)C (some centres unmarked) [Compound I-126]
23 | > 50 | 0.4 (≈ 0.7 µM) | > 50 | 2 (≈ 3.5 µM) | 2 (≈ 3.5 µM) | 0.4 (≈ 0.7 µM) | 2 (≈ 3.5 µM) | 2 (≈ 3.5 µM) | COc1ccc(F)cc1[C@H](Cn1c(=O)n([C@H](C)C(=O)NC(C)C)c(=O)c2c(C)c(-n3cccn3)sc21)OC(C)C [Compound I-127]
24 | > 50 | 0.4 (≈ 0.702 µM) | > 50 | ≥ 2 | 2 (≈ 3.51 µM) | 2 (≈ 3.51 µM) | > 10 | 10 (≈ 17.6 µM) | COc1ccc(F)cc1[C@H](Cn1c(=O)n(CC(=O)N2CCCC2)c(=O)c2c(C)c(-n3cccn3)sc21)OC(C)C [Compound I-128]
25 | 50 (≈ 85.1 µM) | 0.4 (≈ 0.681 µM) | > 50 | 2 (≈ 3.4 µM) | 2 (≈ 3.4 µM) | 2 (≈ 3.4 µM) | 10 (≈ 17 µM) | 2 (≈ 3.4 µM) | COc1ccc(F)cc1[C@H](Cn1c(=O)n(C(C)(C)C(=O)NC(C)C)c(=O)c2c(C)c(-n3cccn3)sc21)OCCO [Compound I-129]
